Assay results from patent US6344180B1 (BioNebraska, Inc., priority 1999, dated 2002).
Ends that are not written are not given here.

Legend:
β-cell secretion [1] = experiment: Part three: combined glucose+GLP-1 injection vs hyperglycemic clamp with L-arginine, maximal secretory capacity; format: in vivo, human; details: for Incremental C-peptide response (peak minus concentration at time of injection) / Incremental insulin response (peak minus concentration at time of injection): hyperglycemic clamp 30 mmol/l, 5 g L-arginine bolus at 45 min; for Absolute mean peak C-peptide concentration / Absolute mean peak insulin concentration: hyperglycemic clamp with 5 g L-arginine
Description: (§1) The present study was divided into three parts.
(§2) Part one: Six type II diabetic patients (four men and two women, mean (range), age: 56 years (48-67 years); BMI: 31.1 kg/m^2 (27-38 kg/m^2); HbA1c; 9.6% (7,0-12.5%) ) and 6 healthy subjects individually matched for sex, age and BMI (age: 56 years (51-70 years); BMI: 31.6 kg/m^2 (26-37 kg/M^2); HbA1c: 5.5% (5.2-5.8%)). […] Part three 8 type II diabetic patients (seven men and one woman, age: 55 years (49-69 years); BMI: 30.9 kg/m^2 (27-35 kg/M^2); HbA1c: 7.6% (6.3-8.6%)) and 8 healthy subjects (age: 55 years (51-64 years); BMI 31.1 kg/m^2 (25-38 kg/m^2); HbA1c: 5.4% (5.0-6.0%)) participated. Four patients were treated with diet alone while four were treated with diet and oral antidiabetics (sulphonylureas and/or biguanides). […] All type II diabetic patients were diagnosed according to the criteria of National Diabetes Data Group. […] All agreed to participate after oral and written information.
(§3) All oral antidiabetics were discontinued 72 hours before the study.
During the hyperglycemic clamp, glucose (50% w/v) was injected at time zero to increase the plasma glucose to 30 mmol/l (calculated as follows: (30 mmol/l−fasting plasma glucose)×35 mg glucose×weight in kilogram). Plasma glucose was kept at 30 mmol/l by continuous infusion of glucose, which was adjusted according to a bedside measurement of plasma glucose ever 5 minutes. At 45 minutes, 5 g L-arginine monohydrochloride was injected as a bolus during 30 seconds. Blood was sampled 15, 10 and 0 minutes before and 5, 10, 15, 20, 25, 30, 35, 40, 45, 47, 48, 49, 51, 53, 55, 60, 65, 70, 75 and 90 minutes after elevation of plasma glucose. The L-arginine was dissolved in 50 ml of sterilized water and dispensed into glass ampoules and stored at 4° C. until the day of the experiment. Blood was sampled into fluoride tubes for measurement of glucose and into chilled EDTA tubes with aprotinin (500 KIU/ml blood; Trasylol, Bayer, Leverkusen, Germany) for peptide analyses. Tubes were immediately cooled on ice and centrifuged within 20 minutes at 4° C., and plasma was stored at −20° C. until analysis.
(§4) Plasma glucose concentrations were measured during the experiments using a glucose oxidase method with a Glucose Analyzer (Yellow Springs Instrument Model 23 A, USA). Plasma insulin concentrations were measured according to Albano et al using standards of human insulin and antibody code no. 2004. The sensitivity of the assay is approximately 3 pmol/l, the intraassay coefficient of variation is 8% at 48 pmol/l. C-peptide concentrations were determined by radioimmunoassay (RIA) as described by Heding et al employing the polyclonal antibody M1230[12]. […] The detection limit is approximately 60 pmol/l, the intra-assay coefficient of variance is 5%, interassay coefficient of variation is 7.3%. […] The assay has a detection limit of 5 pmol/l. […] The detection limit is 1 pmol/l.

pancreas = details: cited from earlier work
β-cell secretion [2] = experiment: Part one: dose-response of I.V. bolus GLP-1 compared with glucagon test, peak plasma insulin and C-peptide; format: in vivo, human; details: glucagon test 1 mg I.V. bolus
Description: as §1, §2, §3
(§5) Meal test: Venous blood was drawn 15, 10 and 0 min before and 15, 30, 45, 60, 75, 90, 120, 150 and 180 minutes after ingestion of a standard breakfast meal. […] The peptide was dissolved in sterilized water containing 2% human serum albumin (Albumin Nordisk, Novo Nordisk, Bagsvaerd, Denmark, guaranteed to be free of hepatitis-B surface antigen and human immunodeficiency virus antibodies) and subjected to sterile filtration. Appropriate amounts of peptide for each experimental subject were dispensed into glass ampoules and stored frozen under sterile conditions until the day of the experiment. Part two: β-cell function was examined on 3 different days. […] Fifteen minutes later plasma glucose was elevated to 15 mmol/l by intravenous glucose (50% w/v) administration as described above.
as §4

β-cell secretion [3] = experiment: Part two: 2.5 nmol GLP-1, glucagon test, combined glucose+GLP-1 injection and s.c. GLP-1, peak plasma insulin and C-peptide; format: in vivo, human; details: glucagon test 1 mg I.V.
Description: as §1, §2, §3, §5, §4

[4] = test system: insulin secretion and blood glucose; details: infusions in patients with type II diabetes; cited from earlier work

Molecule: Cl.N=C(N)NCCC[C@H](N)C(=O)O [L-arginine, L-arginine monohydrochloride]
- Incremental C-peptide response (peak minus concentration at time of injection) (β-cell secretion [1]; healthy subjects): 3391 ± 388 pmol/L
- Incremental insulin response (peak minus concentration at time of injection) (β-cell secretion [1]; healthy subjects): 1921 ± 338 pmol/L
- Incremental C-peptide response (peak minus concentration at time of injection) (β-cell secretion [1]; type II diabetic patients): 1360 ± 250 pmol/L
- Incremental insulin response (peak minus concentration at time of injection) (β-cell secretion [1]; type II diabetic patients): 628 ± 226 pmol/L
- Absolute mean peak C-peptide concentration (β-cell secretion [1]; healthy subjects): 6047 ± 652 pmol/L
- Absolute mean peak insulin concentration (β-cell secretion [1]; healthy subjects): 2384 ± 452 pmol/L
- Absolute mean peak C-peptide concentration (β-cell secretion [1]; type II diabetic patients): 3043 ± 508 pmol/L
- Absolute mean peak insulin concentration (β-cell secretion [1]; type II diabetic patients): 816 ± 268 pmol/L

Molecule: Glu Gly Thr Phe Thr Ser Asp Val Ser Ser Tyr Leu Glu Gly Gln Ala Ala Lys Glu Phe Ile Ala Trp Leu Val Lys Gly Arg (NH2) (EGTFTSDVSSYLEGQAAKEFIAWLVKGR-NH2; listed as Homo sapiens) [SEQ. ID NO:6]
- Stimulation of production or release of insulin from the pancreas (pancreas): do not stimulate

Molecule: Glu Gly Thr Phe Thr Ser Asp Val Ser Ser Tyr Leu Glu Gly Gln Ala Ala Lys Glu Phe Ile Ala Trp Leu Val Lys Gly Arg Gly (EGTFTSDVSSYLEGQAAKEFIAWLVKGRG; listed as Homo sapiens) [SEQ. ID NO:5]
- Stimulation of production or release of insulin from the pancreas (pancreas): do not stimulate

Molecule: glucagon
- Peak C-peptide concentration (mean ± SEM) (β-cell secretion [2]; healthy controls): 1874 ± 158 pmol/L
- Peak insulin concentration (mean ± SEM) (β-cell secretion [2]; healthy controls): 360 ± 39 pmol/L
- Peak C-peptide concentration (mean ± SEM) (β-cell secretion [2]; type 2 diabetic patients): 1643 ± 178 pmol/L
- Peak insulin concentration (mean ± SEM) (β-cell secretion [2]; type 2 diabetic patients): 265 ± 45 pmol/L
- Peak C-peptide concentration (mean ± SEM) (β-cell secretion [3]; healthy controls): 1995 ± 99 pmol/L
- Peak insulin concentration (mean ± SEM) (β-cell secretion [3]; healthy controls): 420 ± 61 pmol/L
- Peak C-peptide concentration (mean ± SEM) (β-cell secretion [3]; type 2 diabetic patients): 1780 ± 160 pmol/L
- Peak insulin concentration (mean ± SEM) (β-cell secretion [3]; type 2 diabetic patients): 329 ± 50 pmol/L

Molecule: glucose-dependent insulinotropic polypeptide [GIP]
- Effect on insulin secretion and blood glucose [4]: little or no effect
